Positions count from the first letter of the chain named.
Legend:
[1] = target: T1, SASPase-FLG2 interaction (Homo sapiens, UniProt Q53RT3, D212A); test: HTRF (FRET) screening of agents that modulate the SASPase-FLG2 interaction; format: binding; conditions: SASPase85-343D212A-GST 50 nM, FLG22-213-S-His-THX 200 nM, PBS pH 7.4; read-out: IC50, inhibition of the SASPase-FLG2 interaction
T1 construct: made in house; host or cells: E. coli BL21DE3
T1 sequence (Q53RT3 85-343 D212A): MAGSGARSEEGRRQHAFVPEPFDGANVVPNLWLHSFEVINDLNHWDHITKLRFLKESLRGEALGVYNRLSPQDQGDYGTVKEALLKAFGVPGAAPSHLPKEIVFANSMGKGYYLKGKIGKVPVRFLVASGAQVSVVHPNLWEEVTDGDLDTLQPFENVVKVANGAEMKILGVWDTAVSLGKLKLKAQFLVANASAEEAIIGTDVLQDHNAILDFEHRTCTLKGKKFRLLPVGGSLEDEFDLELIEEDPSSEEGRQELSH
Procedure: The process developed is based on the FLG2-SASPase interaction and uses the homogeneous time-resolved fluorescence (or HTRF) technique.
A recombinant SASPase protein (comprising the amino acid sequence 85-343 of Q53RT3) mutated at its active site (D212A of Q53RT3) and fused with the GST (glutathione S-transferase from Schistosoma japonicum) affinity marker, at its C-terminal end, was prepared in the vector pGEX-4-T3 (GenBank U13855) (SASPase85-343D212A-GST). The D212A mutation was introduced to inactivate the SASPase and to promote a stable interaction with FLG2. […]
Antibodies recognizing, respectively, the affinity markers GST or His-S.Tag, and bearing, respectively, an EuK fluorescence donor group (europium cryptate λex 337 nm/λem 620 nm) or an XL1665 fluorescence receiver group (λex 570-630 nm/λem 665 nm) are used to monitor the peptide-SASPase interaction.
The SASPase-FLG2 interaction was observed by fluorescence energy transfer (FRET) between the fluorescent markers Euk and XL1665. The Euk fluorescence donor was excited at λex 337 nm and the fluorescence emission of the XL1665 fluorescence acceptor was measured at λem 665 nm.
The Euk fluorescence emission at λem 620 nm, taking place independently of the interaction between SASPase and FLG2, was used to normalize the signal. Thus, for each point, a ratio λem 665/λem 620 is determined. […]

[2] = system: reconstructed human epidermis Episkin J6; test: Stratum corneum thickness by histological observation on slices of Episkin reconstructed epidermis; format: cell-based; conditions: tested at 10 μM, 1 μM and 0.5 μM; observed at and above the lowest concentration tested
Procedure: (§1) A model of reconstructed human epidermis Episkin J6 (reference 09-EPIS-015) was cultured by immersion in Episkin differentiation medium, 3.5 ml under insert in an oven at 37° C., 5% CO2, the medium being changed every 2 days.
(§2) The compound “M7” was tested at concentrations of 10 μM, 1 μM and 0.5 μM by incubation of the epidermal model with a differentiation culture medium supplied by EpiSkin®, comprising the compound at the test concentration or a buffer solution as control (DMSO at 0.1% final).
(§3) The effect of the compound “M7” on the differentiation and/or proliferation of epidermal cells is evaluated by measuring the thickness of the stratum corneum, and measurement of the expression and/or activation of transglutaminase I (TGI), caspase 14, SASPase, corneodesmosin, desmoglein 1 or protein Ki67.
The thickness of the stratum corneum was estimated by histological observation on slices.

[3] = system: reconstructed human epidermis Episkin J6; test: Western blotting of differentiation markers in Episkin reconstructed epidermis; format: cell-based; conditions: Episkin epidermis cultured in the presence of M7 (10 μM, 1 μM, 0.5 μM)
Procedure: as §1, §2, §3
The activation, expression and maturation of TGI, filaggrin, caspase 14, SASPase, corneodesmosin and desmoglein 1 were determined by western blotting.
For the western blotting, the soluble proteins, TGI, caspase 14, corneodesmosin and SASPase were extracted from two Episkin® nacelles with a manual potter in 1 ml of “native +” buffer (TBS, 1M NaCl, 0.1% Tween 20). The extract is centrifuged at 14 000 rpm, at 4° C. for 10 minutes. The supernatant obtained is filtered through a 0.45 μm Millipore filter (millex) and the proteins are then quantified by the BCA method (Pierce). The protein concentrations are equilibrated to 625 μg/ml final.
The extracts are deposited on a 10-20% Criterion gel (ref.: 345-0044 Bio-Rad) according to the supplier's protocol, and are then transferred onto a PVDF membrane via the semi-dry method.
The western blotting immunochemical detection is performed according to a standard protocol carried out with primary antibodies specific for the target and secondary antibodies coupled to HRP. Revelation is performed with the kits ECL; ECL plus; ECL advanced (Amersham) according to the necessary sensitivity and according to the supplier's protocol. The photon imaging apparatus used is the Fluor S Multilmager (Bio-Rad).
For TGI, primary antibody: Covalab pab 0061 at 1/100 produced in rabbits; secondary antibody: HRP-coupled anti-rabbit antibody at 1/4000: Bio-rad 170-6515
For caspase 14, primary antibody: Santa Cruz sc-5628 at 1/500 produced in rabbits; secondary antibody: HRP-coupled anti-rabbit antibody at 1/400: Bio-rad 170-6515
For corneodesmosin, primary antibody: Abnova 1041-M01 at 1/5000 produced in mice; secondary antibody: HRP-coupled anti-mouse antibody at 1/4000: Bio-rad 170-6516
For SASPase, primary antibody: Covalab 7H9a105 at 1/2000 produced in mice; secondary antibody: HRP-coupled anti-mouse antibody at 1/4000: Bio-rad 170-6516
For the western blotting of filaggrin and desmoglein 1, these proteins are extracted from the pellet obtained during the extraction of the “soluble” proteins. The pellets are ground with an electric potter in 200 μl of whole Laemmli buffer ([…] Tris; 2% SDS; 200 mM DTT; 10% glycerol) and then heated at 90° C. for 10 minutes and finally centrifuged for 10 minutes at 14 000 rpm at room temperature.
The supernatants obtained are assayed for proteins via the Bradford method (cytoskeleton). The total protein concentrations are equilibrated to 1 mg/ml final. A western blotting protocol identical to the previous one is applied.
For desmoglein 1, primary antibody: Progen 61002 at 1/100 produced in mice; secondary antibody: HRP-coupled anti-mouse antibody at 1/4000: Bio-rad 170-6516

[4] = system: reconstructed human epidermis Episkin J6; test: Ki67 immunofluorescence on frozen slices of Episkin reconstructed epidermis; format: cell-based; conditions: Episkin epidermis cultured in the presence of M7 (10 μM, 1 μM, 0.5 μM)
Procedure: as §1, §2, §3
The activation, expression and maturation of Ki67 were determined by immunofluorescence on frozen slices.
The immunofluorescence labeling on frozen slices is performed using a standard protocol, with a PBS buffer; 0.2% BSA for the steps of washing and incubation of the primary and secondary antibodies, and with a PBS buffer; 5% BSA for the step for blocking the nonspecific sites.
For the detection of Ki67, primary antibody: Novocastra mm1 at 1/20 produced in mice; secondary antibody: AlexaFLuor A488-coupled anti-mouse antibody at 1/1000 (Molecular Probes A11017). […]

[5] = target: T2, recombinant SASPase (28 kDa) (Homo sapiens, UniProt Q53RT3); test: Enzymatic activation of SASPase by FLG2 (hydrolysis of fluorescent substrate Dabcyl-QIDRIMEK-Edans); format: biochemical; conditions: for enzymatic activity of the SASPase: increasing concentration of FLG2 form (0.01 to 10 times SASPase 0.025 mg/ml), acetate/acetic acid buffer pH 5.5, 37° C.
T2 construct: made in house
T2 sequence (Q53RT3 85-343): T1 sequence (Q53RT3 85-343 D212A) with A128D
Procedure: The enzymatic reaction is performed in an acetate/acetic acid buffer. The FIGURE illustrates the mean±sem of an experiment performed in duplicate.
A 28-kDa recombinant SASPase corresponding to the amino acid sequence 85 to 343 of the sequence Q53RT3 (Uniprot/Swissprot ref.) was prepared as described by Bernard et al. (J. Invest. Dermatol., 2005, 125: 278-287) (SASPase85-343).
The SASPase was dissolved in a PBS buffer and used at a final concentration of 0.025 mg/ml in the presence of a final concentration of a colorimetric substrate Dabcyl-QIDRIMEK-Edans of 0.01 mM (Production Jerini Peptide Ref. D17: JPT Peptide Technologies GmbH).
FLG2-Hs and FLG2-AbD are used at concentrations corresponding to 0.01, 0.02, 0.04, 0.08, 0.16, 0.31, 0.63, 1.25, 2.5, 5 or 10 times the final concentration of SASPase, i.e. 0.025 mg/ml.
SASPase and FLG2-Hs, or FLG2-AbD, are incubated at 37° C. in a 0.1 M acetate/acetic acid buffer at pH 5.5 containing 150 mM of NaCl, in the presence of Dabcyl-QIDRIMEK-Edans.
The hydrolysis of the colorimetric substrate by the activated SASPase leads to the separation of the Edans fluorochrome and of its Dabcyl deactivator (or quencher), and to an increase in the fluorescence of Edans.
Measurement of the fluorescent signal is performed at λex 340 nm/[…]. The fluorescence is read every 10 minutes for 1 hour 30 minutes at 37° C., with a Spectramax M5e (Molecular Devices).

In the case of `Cc1ccc(C(=O)Oc2cccc(C3C4=C(Nc5c3c(=O)n(C)c(=O)n5C)c3ccccc3C4=O)c2)cc1` (centres unmarked) [M7], the IC50 [1] is reported as ~2000 nM, the “thickness of the stratum corneum” value [2] is reported as “thickening” and the “expression and activation of SASPase” value [3] is reported as “increase”. For the same molecule, the “expression and activation of TGI (transglutaminase I)” value [3] was “increase”, the “expression and activation of caspase 14” value [3] was “increase” and the “expression and activation of corneodesmosin” value [3] was “increase”. The “expression and activation of desmoglein” value [3] was “increase” and the “activation and expression of the protein Ki67” value [4] was “decrease”.

B1: FLG2-Hs: recombinant filaggrin-2, amino acids 2-213 of Q5D862, fused N-terminally to thioredoxin-His-S.Tag; active form (protein, UniProt Q5D862 2-213, looked up, fragment)
chain: TDLLRSVVTVIDVFYKYTKQDGECGTLSKGELKELLEKELHPVLKNPDDPDTVDVIMHMLDRDHDRRLDFTEFLLMIFKLTMACNKVLSKEYCKASGSKKHRRGHRHQEEESETEEDEEDTPGHKSGYRHSSWSEGEEHGYSSGHSRGTVKCRHGSNSRRLGRQGNLSSSGNQEGSQKRYHRSSCGHSWSGGKDRHGSSSVELRERINKSHI
modifications: N-terminal thioredoxin-His-S.Tag fusion
B1 was tested, and the “FLG2 concentration at and above which activation of SASPase proteolytic activity is obtained” value ([5]; SASPase 0.025 mg/ml) was “equivalent to that of the SASPase” and the “enzymatic activity of the SASPase” value [5] was “significantly increased”.

B2: FLG2-AbD: recombinant filaggrin-2, amino acids 81-212 of Q5D862, fused N-terminally to thioredoxin-His-S.Tag; inactive form (protein, UniProt Q5D862 81-212, looked up, fragment)
chain: LTMACNKVLSKEYCKASGSKKHRRGHRHQEEESETEEDEEDTPGHKSGYRHSSWSEGEEHGYSSGHSRGTVKCRHGSNSRRLGRQGNLSSSGNQEGSQKRYHRSSCGHSWSGGKDRHGSSSVELRERINKSH
modifications: N-terminal thioredoxin-His-S.Tag fusion
B2 was tested, and the “enzymatic activity of the SASPase” value [5] was “virtually unchanged”.

From patent publication US9869681B2, “Process for treating an individual with an esthetic defect of skin by modulating SASPase FLG2 complex” (L'OREAL, priority 2010, dated 2018)
